The numbers were not newly measured in patent US5122608A, “Method for the preparation of substituted and unsubstituted 2,3-pyridine and quinolinedicarboxylic acids” (priority 1990, dated 1992), which cites them from elsewhere.

The conditions of the data set: ionization constant; representative mineral and organic acids.

Turning to `O=C(O)C(Cl)(Cl)Cl` [Trichloroacetic], the pKa (in general, the pH at which an ionisable group is half protonated) is given as 0.5.

For the compound `CCc1ccc(S(=O)(=O)O)cc1` [p-Ethylbenzene sulfonic], the pKa is on record as 0.9.
